Experimental data as given in patent US7504422B2, “Polyamine compounds” (Taigen Biotechnology Co. Ltd., priority 2003, dated 2009).

B1: G-CSF: granulocyte-colony stimulating factor; growth factor for stem cells and EPCs currently used in clinics (protein, UniProt P09919 31-207, looked up)
Granulocyte …: TPLGPASSLPQSFLLKCLEQVRKIQGDGAALQEKLVSECATYKLCHPEELVLLGHSLGIPWAPLSSCPSQALQLAGCLSQLHSGLFLYQGLLQALEGISPELGPTLDTLQLDVADFATTIWQQMEELGMAPALQPTQGAMPAFASAFQRRAGGVLVASHLQSFLEVSYRVLRHLAQP

Experiments:
Maximum Tolerated Dose = conditions: male, BALB/c, mouse, in vivo, intravenous; mice
[1] = tested on: hematopoietic stem cells CD34+ and EPCs CD133+; assay: Stem cell and endothelial progenitor cell mobilization into peripheral blood; format: in vivo, BALB/c mice; conditions: for Fold increase at 1 mg/Kg, CD34+ / Fold increase at Maximum Tolerated Dose (MTD), CD34+: CD34+ cells in circulation; for Fold increase at 1 mg/Kg, CD34+ / Fold increase at Maximum Tolerated Dose (MTD), CD34+ / Fold increase at 1 mg/Kg, CD133+ / Fold increase at Maximum Tolerated Dose (MTD), CD133+: mice; for Fold increase at Maximum Tolerated Dose (MTD), CD34+ / Fold increase at Maximum Tolerated Dose (MTD), CD133+: MTD (125: 15 mg/kg, 136: 30 mg/Kg); for Fold increase at 1 mg/Kg, CD133+ / Fold increase at Maximum Tolerated Dose (MTD), CD133+: CD133+ cells in circulation; for mobilization of hematopoietic stem cells CD34+ and EPCs CD133+ into peripheral blood: animal studies; for Fold increase in circulation, CD34+ / Fold increase in circulation, CD133+: Table 2, 125 at 15 mg/Kg, G-CSF at 50 ug/kg/d × 4, alone or combined
Method: The in vivo efficacy of these two compounds in mobilizing stem cells was tested in male Special Pathogens Free (SPF) BALB/c mice. Different concentrations of a compound solution were prepared and administrated either intravenously of intramuscularly into mice. Mice receiving saline were used as a control. Whole blood was collected at 3 hours after i.v. injection or 6 hours after i.m. injection by cardiac puncture. Total leukocytes were resuspended in PBS and cell numbers were counted using trypan blue exclusion. Cells numbers were adjusted to 6×10^4 in 0.1 mL PBS for antibody staining. CXCR4^+ cells, CD34^+ cells, and CD133^+ cells were counted using surface staining and flow cytometry analysis. Data represents mean ±SEM of four independent experiments. Levels of cell number in different groups were compared using One-way ANOVA, differences were considered significant if P values were <0.05.

Molecule	MTD (Maximum Tolerated Dose) [mg/kg]	Fold increase at 1 mg/Kg, CD34+ [1] [fold]	Fold increase at Maximum Tolerated Dose (MTD), CD34+ [1] [fold]	Fold increase at 1 mg/Kg, CD133+ [1] [fold]	Fold increase at Maximum Tolerated Dose (MTD), CD133+ [1] [fold]	mobilization of hematopoietic stem cells CD34+ and EPCs CD133+ into peripheral blood [1]	Fold increase in circulation, CD34+ [1] [fold]	Fold increase in circulation, CD133+ [1] [fold]
COc1ccc2[nH]c(CNCc3ccc(CN(CCNCc4ccccn4)CCNCc4ccccn4)cc3)nc2c1 [Compound 136, N1-(4-(((5-methoxy-1H-benzo[d]imidazol-2-yl)methylamino)methyl)benzyl)-N2-(pyridin-2-ylmethyl)-N1-(2-(pyridin-2-ylmethylamino)-ethyl)ethane-1,2-diamine]	30	2.63	5.66	3.17	8.49	rapidly mobilized		
c1ccc(CNCCN(CCNCc2ccccn2)Cc2ccc(CNCc3nc4ccccc4[nH]3)cc2)nc1 [Compound 125, N-(4-{[(1H-benzoimidazol-2-ylmethyl)-amino]-methyl}-benzyl)-N′-pyridin-2-ylmethyl-N-{2-[(pyridin-2-ylmethyl)-amino]-ethyl}-ethane-1,2-diamine]	15	3.99	6.58	2.24	5.77	rapidly mobilized	7.1	6.0
B1							8.4	26.2
